According to PMC11264232, “Are the metal identity and stoichiometry of metal complexes important for colchicine site binding and inhibition of tubulin polymerization?” (Dalton Transactions (Cambridge, England : 2003), 2024):
pIC50: −log10 of the molar value. Values joined by “and” are separate entries in the source; they are usually repeats but may differ in a detail not shown here. Equal entries are not always repeated.

Legend:
[1] = system: UACC-62; conditions: Melanoma
Text: (§1) The proligands HL^1–HL^3 and their corresponding metal complexes 1–8 prepared in this study were subjected to evaluation of their anticancer potential, including selectivity towards specific types of cancer: leukemia, non-small cell lung (NSCLC), colon, central nervous system (CNS), melanoma, ovarian, renal, prostate and breast cancers, by the National Cancer Institute's Developmental Therapeutics Program. This evaluation involved the utilization of the NCI 60 human tumor cell line panel.[57] […] The GI50 data in μM are collected in Table 5.
(§2) The NCI-60 SRB assay was performed as described previously.[76]

[2] = system: UACC-257; conditions: Melanoma
Text: as §1, §2

[3] = system: M14; conditions: Melanoma
Text: as §1, §2

[4] = system: LOX IMVI; conditions: Melanoma
Text: as §1, §2

[5] = system: SK-MEL-5; conditions: Melanoma
Text: as §1, §2

[6] = system: MDA-MB-435; conditions: Melanoma
Text: as §1, §2

[7] = system: SK-MEL-28; conditions: Melanoma
Text: as §1, §2

[8] = system: SK-MEL-2; conditions: Melanoma
Text: as §1, §2

[9] = system: MALME-3M; conditions: Melanoma
Text: as §1, §2

[10] = system: SNB-19; assay: NCI-60 five-dose screen; type: cell-based, human; conditions: CNS cancer
Text: (§3) GI50 values (the concentration of the metal complex causing 50% growth inhibition), TGI value (the concentration of the complex causing 0% cell growth), and LC50 (the concentration of the complex causing 50% cell death) were interpolated from dose–response curves that were plots of percentage cell growth versus concentration of test compounds.

[11] = system: SN12C; assay: NCI-60 five-dose screen; type: cell-based, human; conditions: Renal cancer
Experimental: (§4) The NCI-60 SRB assay was performed as described previously.[76] GI50 values (the concentration of the metal complex causing 50% growth inhibition), TGI value (the concentration of the complex causing 0% cell growth), and LC50 (the concentration of the complex causing 50% cell death) were interpolated from dose–response curves that were plots of percentage cell growth versus concentration of test compounds.

[12] = system: NCI 60 human tumor cell line panel; assay: NCI-60 five-dose screen, average across panel; type: cell-based; conditions: five-dose 0.01–100 μM
Experimental: as §4

[13] = system: UO-31; assay: NCI-60 five-dose screen; type: cell-based, human; conditions: Renal cancer
Text: as §3

[14] = system: CCRF-CEM; assay: NCI-60 five-dose screen; type: cell-based, human; conditions: Leukemia
Experimental: as §4

[15] = system: OVCAR-5; assay: NCI-60 five-dose screen; type: cell-based, human; conditions: Ovarian cancer
Experimental: as §4

[16] = system: DU-145; assay: NCI-60 five-dose screen; type: cell-based, human; conditions: Prostate cancer
Text: as §3

[17] = system: 786-0; assay: NCI-60 five-dose screen; type: cell-based, human; conditions: Renal cancer
Experimental: as §4

[18] = system: A549 human lung adenocarcinoma cells; assay: MTT viability assay, 24 h; conditions: read-out: IC50 values A549; A549 cells, 24 h, MTT assay
Experimental: (§5) We wanted to compare the cytotoxicity of proligands HL^1–HL^3 and of their Co(III) and Fe(III) complexes 1, 2 and 4, 5 on cell lines originating from the same tissue, so human lung carcinoma A549 cells and lung fibroblast MRC-5 cells were subjected to 24 h treatments.
(§6) The biological effects of selected metal complexes (1, 2, 4 and 5) and of their proligands (HL^1, HL^2 and HL^3) were tested more extensively on A549 human lung adenocarcinoma cells and on MRC-5 human lung fibroblast cells. Both cell lines were obtained from ATCC and maintained in DMEM cell culture media containing 1.0 g L^−1 glucose (Biosera, Nuaille, France) complemented with 10% fetal bovine serum (FBS), 2 mM L-glutamine, 0.01% streptomycin and 0.005% penicillin and were cultured under standard conditions in a 37 °C incubator at 5% CO2 and 95% humidity. The viability of A549 and of MRC-5 fibroblast cells upon exposure to the selected metal–ligand complexes and ligands were evaluated by the MTT assay. For this, 10 000 cells per well were seeded into 96-well plates and left to grow. On the next day the cells were exposed to 0, 5, 10, 20, 40 or 80 μM of each compound or to an equivalent volume of DMSO for 24 h. After the treatments, cells were washed with PBS and then were incubated with 0.5 mg mL^−1 MTT reagent (Sigma-Aldrich, St Louis, Missouri, USA) for 1 h at 37 °C. Finally, 100 μL of DMSO (Molar Chemicals, Halásztelek, Hungary) was added to each well, and the absorbance of samples was measured at 570 nm using a Synergy HTX plate reader (BioTek, Winooski, Vermont, USA). The viability measurements were repeated three times using 3 independent biological replicates.

[19] = system: tubulin (colchicine site); assay: Inhibition of [3H]colchicine binding to tubulin; conditions: tubulin 0.5 μM, [3H]colchicine 5 μM
Text: The methods used for determination of the IC50 values for tubulin assembly and inhibition of [^3H]colchicine binding were as described previously.[77]

[20] = system: HCC-2998; assay: NCI-60 five-dose screen; type: cell-based, human; conditions: Colon cancer
Experimental: as §4

[21] = system: SK-OV-3; assay: NCI-60 five-dose screen; type: cell-based, human; conditions: Ovarian cancer
Experimental: as §4

[22] = system: A549 cells; assay: BrdU incorporation assay; conditions: 10 μM, 24 h
Experimental: To test directly the antiproliferative activity of the proligands and of their Co(III) and Fe(III) complexes on A549 cancer cells, non-toxic concentrations of the compounds were applied to the cells, then the 5-bromo-2′-deoxy-uridine (BrdU) incorporation assay was performed (Fig. 10).
The effect of proligands HL^1–HL^3 and of metal complexes 1, 2 and 4, 5 on the proliferation of A549 cells was investigated by the BrdU assay (5-bromo-2′-deoxyuridine Labeling and Detection Kit I, Roche, Cat. No. 11 296 736 001). For this, 3 × 10^4 cells were seeded onto glass coverslips that were placed on 24-well plates, and the cells were left to grow overnight. Next day, when the cells reached about 50% confluence, the samples were treated with 10 μM of each compound or with an equivalent volume of DMSO for 24 h. At this point, BrdU labeling solution was added in a 1 : 1000 dilution, and the incubation continued for 30 min. Then the cells were fixed using 70% ethanol in 50 mM glycine (pH 2.0), and immunofluorescence of adherent cells was measured following the manufacturer's instructions. BrdU incorporation was visualized using an Olympus FV10i confocal microscope.

[23] = system: MDA-MB-231/ATCC; assay: NCI-60 five-dose screen; type: cell-based, human; conditions: Breast cancer
Experimental: as §4

[24] = system: SF-539; assay: NCI-60 five-dose screen; type: cell-based, human; conditions: CNS cancer
Text: as §3

[25] = system: OVCAR-8; assay: NCI-60 five-dose screen; type: cell-based, human; conditions: Ovarian cancer
Experimental: as §4

[26] = system: CAKI-1; assay: NCI-60 five-dose screen; type: cell-based, human; conditions: Renal cancer
Experimental: as §4

[27] = system: U251; assay: NCI-60 five-dose screen; type: cell-based, human; conditions: CNS cancer
Experimental: as §4

[28] = system: RXF 393; assay: NCI-60 five-dose screen; type: cell-based, human; conditions: Renal cancer
Experimental: as §4

[29] = system: NCI-H226; assay: NCI-60 five-dose screen; type: cell-based, human; conditions: Non-Small Cell Lung Cancer
Experimental: as §4

[30] = system: EKVX; assay: NCI-60 five-dose screen; type: cell-based, human; conditions: Non-Small Cell Lung Cancer
Experimental: as §4

[31] = system: HOP-62; assay: NCI-60 five-dose screen; type: cell-based, human; conditions: Non-Small Cell Lung Cancer
Experimental: as §4

[32] = Solution stability by UV–vis spectrophotometry; type: physicochemical
[33] = system: SF-268; assay: NCI-60 five-dose screen; type: cell-based, human; conditions: CNS cancer
Text: as §3

[34] = system: MRC-5 human lung fibroblast cells; assay: MTT viability assay, 24 h; conditions: read-out: IC50 values MRC-5; MRC-5 fibroblasts, 24 h, MTT assay
Experimental: as §5, §6

[35] = system: MDA-MB-468; assay: NCI-60 five-dose screen; type: cell-based, human; conditions: Breast cancer
Experimental: as §4

[36] = system: A498; assay: NCI-60 five-dose screen; type: cell-based, human; conditions: Renal cancer
Experimental: as §4

[37] = system: RPMI-8226; assay: NCI-60 five-dose screen; type: cell-based, human; conditions: Leukemia
Experimental: as §4

[38] = system: HL-60(TB); assay: NCI-60 five-dose screen; type: cell-based, human; conditions: Leukemia
[39] = system: HOP-92; assay: NCI-60 five-dose screen; type: cell-based, human; conditions: Non-Small Cell Lung Cancer
Experimental: as §4

[40] = system: HS 578T; assay: NCI-60 five-dose screen; type: cell-based, human; conditions: Breast cancer
Experimental: as §4

[41] = system: HCT-15; assay: NCI-60 five-dose screen; type: cell-based, human; conditions: Colon cancer
Experimental: as §4

[42] = system: PC-3; assay: NCI-60 five-dose screen; type: cell-based, human; conditions: Prostate cancer
Text: as §3

[43] = system: NCI-H460; assay: NCI-60 five-dose screen; type: cell-based, human; conditions: Non-Small Cell Lung Cancer
Experimental: as §4

[44] = system: OVCAR-4; assay: NCI-60 five-dose screen; type: cell-based, human; conditions: Ovarian cancer
Experimental: as §4

[45] = system: KM12; assay: NCI-60 five-dose screen; type: cell-based, human; conditions: Colon cancer
Experimental: as §4

[46] = system: IGROV1; assay: NCI-60 five-dose screen; type: cell-based, human; conditions: Ovarian cancer
Experimental: as §4

CC(=NN=C([S-])Nc1cc(C)c(O)c(C)c1)c1cccc(CN2CCOCC2)n1.CC(=NN=C([S-])Nc1cc(C)c(O)c(C)c1)c1cccc(CN2CCOCC2)n1.O=[N+]([O-])[O-].[Fe+3] [Complex 4, [Fe^III(L^2)2]NO3]
GI50 [1]: 1860 nM
GI50 [2]: 4.34 µM
GI50 [3]: 2370 nM
GI50 [4]: 2340 nM
GI50 [5]: 1100 nM
GI50 [6]: 2310 nM
GI50 [7]: 2380 nM
GI50 [8]: 1670 nM
GI50 [9]: 1930 nM
GI50 [10]: 2760 nM
GI50 [11]: 2530 nM
average TGI across all cell lines in the panel [12]: 18.4 µM
GI50 ([12]; read-out: average GI50 across all cell lines in the panel): 2920 nM
LC50 ([12]; read-out: average LC50 across all cell lines in the panel): 51.2 µM
GI50 [13]: 1660 nM
GI50 [14]: 2220 nM
GI50 [15]: 2740 nM
GI50 [16]: 6.29 µM
GI50 [17]: 9.56 µM
pIC50 [18]: 4.77 to 4.85 and 4.77
Inhibition of colchicine binding, % inhibition ± SD ([19]; 5 μM inhibitor): 3.4 ± 5%
Inhibition of colchicine binding, % inhibition ± SD ([19]; 25 μM inhibitor): 17 ± 4%
GI50 [20]: 2730 nM
GI50 [21]: 2700 nM
A549 cell proliferation (BrdU incorporation) [22]: significantly less BrdU incorporation
GI50 [23]: 2440 nM
GI50 [24]: 1960 nM
GI50 [25]: 2500 nM
GI50 [26]: 3.74 µM
GI50 [27]: 1970 nM
GI50 [28]: 1950 nM
GI50 [29]: 2540 nM
GI50 [30]: 2250 nM
GI50 [31]: 2970 nM
stability of Fe(III) complexes ([32]; DMSO and water at pH 7.4): slow partial dissociation
stability of Fe(III) complexes ([32]; pH 2): complete dissociation
stability of Fe(III) complexes ([32]; pH 11.7, anoxic conditions): the changes were minimal
GI50 [33]: 2360 nM
pIC50 [34]: < 4.10
GI50 [35]: 1560 nM
GI50 [36]: 19.8 µM
GI50 [37]: 1810 nM
GI50 [38]: 1410 nM
GI50 [39]: 2540 nM
GI50 [40]: 1960 nM
GI50 [41]: 2360 nM
GI50 [42]: 2430 nM
GI50 [43]: 1980 nM
GI50 [44]: 3.25 µM
GI50 [45]: 2340 nM
GI50 [46]: 3.27 µM
